Measured values: US5091169A, “Dipyridoxyl phosphate NMRI contrast agent compositions” (priority 1989, dated 1992)
Read-outs that look alike come from different tables or passages of the source.

Legend:
selected body organs = tested on: selected body organs
Method: Each of four rabbits was injected intravenously with one of the following amounts of the solution obtained in Example 7: 0.01 mmoles/kg, 0.05 mmoles/kg, 0.10 mmoles/kg and 0.20 mmoles/kg. The rabbits were sacrificed 30 min post injection, and the proton relaxation values of selected body organs were measured with NMR, in vitro at 10 MHz.

[1] = Source text: The compound DPDP was studied potentiometrically from pH 11.2 to 2.0. Data sets were collected on a custom-built automatic potentiometric titration apparatus composed of a METROHM 655 DOSIMAT automatic buret, a FISHER ACCUMET pH meter with a CORNING calomel combination electrode, a custom-blown water jacketed titration cell, a BRINKMAN LAUDA K-2/R constant temperature bath and a COMMODORE 64 computer. The BASIC computer program TITRATOR (Harris, W. et al, J.Am.Chem.Soc. 101:6534 (1979)) runs the apparatus. Data analysis was performed on an IBM-AT computer using the least squares program, BETA (Harris, W. et al, supra), and the data analysis program, HANDNBAR (Harris, W. et al, supra). The titrants were standardized by phenophthalein titration as follows: KOH was calibrated against potassium hydrogen phthalate (a primary standard), and HCl solutions were calibrated against the KOH standard. The Mn(II)Cl2 solution was standardized with an EDTA titration using Erichrome Black T as the indicator. All solutions were made from distilled, deionized water that was further purified on a MILLI-Q cartridge system, degassed, and then kept under an atmosphere of argon which had been scrubbed for CO2 and O2. Additions of EDTA and Mn(II) solutions were performed using calibrated GILMOT pipets. The electrode was calibrated in concentration units with degassed solutions of p[H+]=2.291 and 1.078 at 0.1 M ionic strength.
The metal complex titration was performed by adding 152.2 mg (0.2383 mmoles) to 74.6 ml of a high pH aqueous solution. 2.07 ml of a 0.1152 M Mn(II) solution (0.2386 mmoles) were added. The complex was then titrated to low pH with 1.002 N HCl.

[2] = 10 MHz, 37° C
Method: The relations of protons present in water and plasma exposed to the chelate product of Example 7 was tested by NMR for relaxities, in msec, at 10 MHz, 37° C.

[3] = 0.05 mmol/kg i.v., 30 min, 10 MHz
[4] = 0.10 mmol/kg i.v., 30 min, 10 MHz
[5] = 0.20 mmol/kg i.v., 30 min, 10 MHz

## Cc1ncc(COP(=O)(O)O)c(CN(CCN(CC(=O)[O-])Cc2c(COP(=O)(O)O)cnc(C)c2O)CC(=O)[O-])c1O.[Mn+2] [Mn(DPDP), manganese chelate complex of N,N'-bis-(pyridoxal-5-phosphate)ethylenediamine-N,N'-diacetic acid]
Selected body organs; [3]
  T2, Stom.: 41 ms
  T2, Urine: 136 ms
Selected body organs; [4]
  T1, Blood: 506 ms
  T1, Brain: 590 ms
  T1, Fat: 183 ms
  T1, Heart: 300 ms
  T1, Large Int.: 290 ms
  T1, Liver: 65 ms
  T1, Lung: 435 ms
  T1, Renal Cort.: 188 ms
  T1, Renal Med.: 209 ms
  T1, Skel. Musc.: 425 ms
  T1, Small Int.: 218 ms
  T1, Stom.: 242 ms
  T1, Urine: 90 ms
  T2, Brain: 90 ms
  T2, Fat: 115 ms
  T2, Heart: 51 ms
  T2, Large Int.: 57 ms
  T2, Liver: 23 ms
  T2, Lung: 61 ms
  T2, Renal Cort.: 55 ms
  T2, Renal Med.: 48 ms
  T2, Skel. Musc.: 31 ms
  T2, Small Int.: 46 ms
  T2, Stom.: 52 ms
  T2, Urine: 75 ms
Selected body organs; [5]
  T1, Blood: 411 ms
  T1, Brain: 352 ms
  T1, Fat: 192 ms
  T1, Heart: 205 ms
  T1, Large Int.: 256 ms
  T1, Liver: 68 ms
  T1, Lung: 376 ms
  T1, Renal Cort.: 143 ms
  T1, Renal Med.: 127 ms
  T1, Skel. Musc.: 232 ms
  T1, Small Int.: 131 ms
  T1, Stom.: 271 ms
  T2, Brain: 66 ms
  T2, Heart: 47 ms
  T2, Large Int.: 74 ms
  T2, Liver: 25 ms
  T2, Lung: 63 ms
  T2, Renal Cort.: 53 ms
  T2, Renal Med.: 60 ms
  T2, Skel. Musc.: 31 ms
  T2, Small Int.: 46 ms
  T2, Stom.: 53 ms
Selected body organs; dose range studied
  heart uptake vs dose: the heart continues to uptake Mn(DPDP) through the dose range studied
Selected body organs; heart, liver and kidneys, i.v.
  uptake in organs: rapid uptake of the Mn(DPDP) in the heart, liver and kidneys
Selected body organs; higher doses
  brain uptake: uptake by the brain was observed at higher doses
Selected body organs; i.v., 30 min post injection
  saturating dose, liver and kidneys: 0.10 mmol/kg
[1]; Mn(II) chelate, titrated from pH 11.1 to 2.0
  log Kf (formation constant): 14.8
[1]; physiological pH
  binding of Mn(II) ion: quantitatively bound to the chelating agent
[1]; titration data
  pH below which chelate begins to demetallate: below 4.5
[2]; 0.000039 Molar
  T1 (Plasma): 1103 ms
[2]; 0.000078 Molar
  T1 (Plasma): 995 ms
[2]; 0.000156 Molar
  T1 (Plasma): 856 ms
  T1 (Water): 1470 ms
[2]; 0.000312 Molar
  T1 (Plasma): 624 ms
  T1 (Water): 1083 ms
[2]; 0.000625 Molar
  T1 (Plasma): 398 ms
  T1 (Water): 639 ms
[2]; 0.00125 Molar
  T1 (Plasma): 240 ms
  T1 (Water): 332 ms
[2]; 0.0025 Molar
  T1 (Plasma): 139 ms
  T1 (Water): 175 ms
  T2 (Plasma): 124 ms
[2]; 0.005 Molar
  T1 (Plasma): 74 ms
  T1 (Water): 100 ms
  T2 (Plasma): 68 ms
  T2 (Water): 86 ms
[2]; 0.010 Molar
  T1 (Plasma): 40 ms
  T1 (Water): 43 ms
  T2 (Plasma): 34 ms
  T2 (Water): 41 ms
